Source: publication PMC6390652 (Toxicological Sciences, 2018)
Like-named read-outs stand apart in the source and are kept apart here.

How the values were obtained:
[1] = tested on: human GI microtissues (EpiIntestinal-FT, ileal); assay: Human GI microtissue barrier function assay; format: cell-based; details: for IC15: Homo sapiens; for TEER (IC15): human microtissue, blinded, unit not given
human GI microtissue [2] = assay: MTT viability assay; format: cell-based; details: Caco-2, read-out: MTT IC50
Caco-2 cells = details: for Caco-2 TEER IC15: Caco-2 transwell, top conc. 100 μM, unit inferred; for Caco-2 TEER IC15/Cmax: human
human GI microtissue [3] = assay: GI microtissue TEER response kinetics; format: cell-based
[4] = 96 h, read-out: Microtissue Exp 1 TEER IC15
[5] = read-out: Microtissue Exp 2 TEER IC15

Compound `C[C@@H](Oc1cc(-c2cnn(C3CCNCC3)c2)cnc1N)c1c(Cl)ccc(F)c1Cl` [Crizotinib] has an IC15 [1, 4] of 9.5 µM, an IC15 [1, 5] of 9.5 µM and an IC50 (human GI microtissue [2]) of 22 µM. For the same compound, the Caco-2 TEER IC15 (Caco-2 cells) was 8 µM.

`CNC(=O)CN1CCC(Oc2cc3c(Nc4cccc(Cl)c4F)ncnc3cc2OC)CC1` [AZD8931] was tested, and the “TEER Diarrhea-Genic Prediction” value [1] was “Active”, the “TEER (IC15)” value [1] was 3.0E-9 and the “TEER recovery after washout” value (human GI microtissue [3]; 100 μM for 3 days, then washout (first cycle)) was “quickly recovered TEER after washout”. The “Effect on TEER during 3-day treatment period” value (human GI microtissue [3]; 100 μM, 3 days continuous, TEER measured daily) was “pronounced decrease in TEER” and the “TEER recovery after second treatment cycle” value (human GI microtissue [3]; 100 μM, second treatment cycle) was “slower”.

`CSCC[C@H](NC(=O)c1cc(NC[C@@H]2C[C@H](SC(=O)c3cccnc3)CN2)ccc1CCc1ccc(F)cc1)C(=O)OC(C)C` [AZD3409] was tested, and the “TEER (IC15)” value [1] was 3.0E-06 and the “TEER Diarrhea-Genic Prediction” value ([1]; scored with TEER IC15/Cmax ratio < 80) was “Active”.

`CC(C)(C)NC(=O)[C@H]1CC[C@H]2[C@@H]3CC[C@H]4NC(=O)C=C[C@]4(C)[C@H]3CC[C@]12C` [Finasteride] was tested, and the IC15 [1, 4] was 80 µM, the IC15 [1, 5] was > 100 µM and the IC50 (human GI microtissue [2]) was > 100 µM. For the same compound, the Caco-2 TEER IC15 (Caco-2 cells) was > 100 µM.

For `COc1cc2nc(N(C)CCCNC(=O)C3CCCO3)nc(N)c2cc1OC` (stereo not drawn) [Alfuzosin], the IC15 [1, 4] was > 100 µM, the IC15 [1, 5] was > 100 µM and the IC50 (human GI microtissue [2]) was > 100 µM. For the same compound, the “Caco-2 TEER IC15/Cmax” value (Caco-2 cells) was 3132.

In the case of `C=C[C@H]1C[N@@]2CC[C@H]1C[C@@H]2[C@@H](O)c1ccnc2ccc(OC)cc12` [Quinidine], the IC15 [1, 4] is reported as 30 µM, the IC15 [1, 5] is reported as 30 µM and the IC50 (human GI microtissue [2]) is reported as > 100 µM.

For `CC(C)NCC(O)c1ccc(O)c(O)c1` (stereo not drawn) [Isoprenaline], the IC15 [1, 4] was > 100 µM, the IC15 [1, 5] was > 100 µM and the IC50 (human GI microtissue [2]) was > 100 µM. The Caco-2 TEER IC15 (Caco-2 cells) was > 100 µM.

In the case of `O=C(NCC1CCCCN1)c1cc(OCC(F)(F)F)ccc1OCC(F)(F)F` (stereo not drawn) [Flecainide], the IC15 [1, 4] is reported as 80 µM, the IC15 [1, 5] is reported as > 100 µM and the IC50 (human GI microtissue [2]) is reported as > 100 µM. For the same compound, the Caco-2 TEER IC15 (Caco-2 cells) was > 100 µM.

`COc1c2occc2cc2ccc(=O)oc12` [Methoxsalen] showed an IC15 [1, 4] of 150 µM, an IC15 [1, 5] of 150 µM and an IC50 (human GI microtissue [2]) of 150 µM.

With `C[C@@H]1C[C@H]2[C@@H]3CCC4=CC(=O)C=C[C@]4(C)[C@@]3(F)[C@@H](O)C[C@]2(C)[C@@]1(O)C(=O)CO` [Dexamethasone] the IC15 [1, 4] was > 100 µM, the IC15 [1, 5] was > 100 µM and the IC50 (human GI microtissue [2]) was > 100 µM. The Caco-2 TEER IC15 (Caco-2 cells) was > 100 µM.

`CNC(=O)c1cc(Oc2ccc(NC(=O)Nc3ccc(Cl)c(C(F)(F)F)c3)cc2)ccn1` [Sorafenib] showed an IC15 [1, 4] of 7.9 µM, an IC15 [1, 5] of 7.9 µM and an IC50 (human GI microtissue [2]) of 65 µM. It also gave a Caco-2 TEER IC15 (Caco-2 cells) of 15 µM.

`COc1cc2c(c(OC)c1OC)-c1ccc(OC)c(=O)cc1[C@@H](NC(C)=O)CC2` [Colchicine] was tested, and the IC15 [1, 4] was > 100 µM and the IC15 [1, 5] was 1 µM.

With `COc1ccc(CCN(C)CCCC(C#N)(c2ccc(OC)c(OC)c2)C(C)C)cc1OC` (stereo not drawn) [Verapamil] the IC15 [1, 4] was 40 µM and the IC15 [1, 5] was 45 µM.

`CCCCCOC(=O)Nc1nc(=O)n([C@@H]2O[C@H](C)[C@@H](O)[C@H]2O)cc1F` [Capecitabine] was tested, and the IC15 [1, 4] was 1 µM, the IC15 [1, 5] was 1 µM and the IC50 (human GI microtissue [2]) was > 100 µM. The Caco-2 TEER IC15 (Caco-2 cells) was > 100 µM.

`O=C(CCCN1CCC(O)(c2ccc(Cl)cc2)CC1)c1ccc(F)cc1` [Haloperidol] gave an IC15 [1, 4] of 22 µM, an IC15 [1, 5] of 8 µM and a Caco-2 TEER IC15 (Caco-2 cells) of 30 µM.

In the case of `CNC(=O)c1ccccc1Sc1ccc2c(/C=C/c3ccccn3)n[nH]c2c1` [Axitinib], the IC15 [1, 4] is reported as 1 µM and the IC15 [1, 5] is reported as > 100 µM.

For `CN(CCOc1ccc(NS(C)(=O)=O)cc1)CCc1ccc(NS(C)(=O)=O)cc1` [Dofetilide], the IC15 [1, 4] was > 100 µM, the IC15 [1, 5] was > 100 µM and the IC50 (human GI microtissue [2]) was > 100 µM. The Caco-2 TEER IC15 (Caco-2 cells) was > 100 µM.

In the case of `CCOC(=O)C1=C(COCCN)NC(C)=C(C(=O)OC)C1c1ccccc1Cl` (stereo not drawn) [Amlodipine], the IC15 [1, 4] is reported as 15 µM, the IC15 [1, 5] is reported as 10 µM and the IC50 (human GI microtissue [2]) is reported as 45 µM. It also gave a Caco-2 TEER IC15 (Caco-2 cells) of 30 µM.

In the case of `CC(=O)Oc1cccc2c1C(=O)c1c(OC(C)=O)cc(C(=O)O)cc1C2=O` [Diacerein], the IC15 [1, 4] is reported as 40 µM, the IC15 [1, 5] is reported as 40 µM and the IC50 (human GI microtissue [2]) is reported as 65 µM. The Caco-2 TEER IC15 (Caco-2 cells) was > 100 µM.

In the case of `CCCCC[C@H](O)/C=C/[C@@H]1[C@H]2C/C(=C/CCCC(=O)O)O[C@H]2C[C@H]1O` [Prostacyclin], the IC15 [1, 4] is reported as > 100 µM, the IC15 [1, 5] is reported as > 100 µM and the IC50 (human GI microtissue [2]) is reported as > 100 µM. The Caco-2 TEER IC15 (Caco-2 cells) was > 100 µM.

With `CN(C)C/C=C/C(=O)Nc1cc2c(Nc3ccc(F)c(Cl)c3)ncnc2cc1O[C@H]1CCOC1` [Afatinib] the IC15 [1, 4] was 6 µM, the IC15 [1, 5] was 8.5 µM and the IC50 (human GI microtissue [2]) was 30 µM. It also gave a Caco-2 TEER IC15 (Caco-2 cells) of 9 µM.

In the case of `CC(C)(C)NCC(O)COc1cccc2c1CC(O)C(O)C2` (stereo not drawn) [Nadolol], the IC15 [1, 4] is reported as > 100 µM, the IC15 [1, 5] is reported as > 100 µM and the IC50 (human GI microtissue [2]) is reported as > 100 µM. The Caco-2 TEER IC15 (Caco-2 cells) was > 100 µM.

With `CO[C@H]1O[C@H](COS(=O)(=O)O)[C@@H](O[C@@H]2O[C@@H](C(=O)O)[C@@H](O[C@H]3O[C@H](COS(=O)(=O)O)[C@@H](O[C@@H]4O[C@H](C(=O)O)[C@@H](O[C@H]5O[C@H](COS(=O)(=O)O)[C@@H](O)[C@H](O)[C@H]5NS(=O)(=O)O)[C@H](O)[C@H]4O)[C@H](OS(=O)(=O)O)[C@H]3NS(=O)(=O)O)[C@H](O)[C@H]2OS(=O)(=O)O)[C@H](O)[C@H]1NS(=O)(=O)O` [Fondaparinux] the IC15 [1, 4] was > 100 µM, the IC15 [1, 5] was > 100 µM and the IC50 (human GI microtissue [2]) was > 100 µM. For the same compound, the Caco-2 TEER IC15 (Caco-2 cells) was > 100 µM.

With `CC(C)C[C@H](NC(=O)[C@H](Cc1ccccc1)NC(=O)c1cnccn1)B(O)O` [Bortezomib] the IC15 [1, 4] was 1 µM, the IC15 [1, 5] was 1 µM and the IC50 (human GI microtissue [2]) was > 100 µM. The Caco-2 TEER IC15 (Caco-2 cells) was 1 µM.

In the case of `C[C@]12C=CC(=O)C=C1CC[C@H]1[C@@H]3C[C@@H](O)[C@](O)(C(=O)CO)[C@@]3(C)C[C@H](O)[C@@]12F` [Triamcinolone], the IC15 [1, 4] is reported as > 100 µM, the IC15 [1, 5] is reported as > 100 µM and the IC50 (human GI microtissue [2]) is reported as > 100 µM. For the same compound, the Caco-2 TEER IC15 (Caco-2 cells) was > 100 µM.

Work on `CC(=O)O[C@@]12CO[C@@H]1C[C@H](O)[C@@]1(C)C(=O)[C@H](O)C3=C(C)[C@@H](OC(=O)[C@H](O)[C@@H](NC(=O)OC(C)(C)C)c4ccccc4)C[C@@](O)([C@@H](OC(=O)c4ccccc4)[C@H]21)C3(C)C` [Docetaxel] yielded an IC15 [1, 4] of 40 µM, an IC15 [1, 5] of 40 µM and an IC50 (human GI microtissue [2]) of 65 µM. The Caco-2 TEER IC15 (Caco-2 cells) was > 100 µM.

`Cc1ccc(NC(=O)c2ccc(CN3CCN(C)CC3)cc2)cc1Nc1nccc(-c2cccnc2)n1` [Imatinib] was tested, and the IC15 [1, 4] was 7 µM and the IC15 [1, 5] was 8 µM.

Compound `CCCCc1oc2ccccc2c1C(=O)c1cc(I)c(OCCN(CC)CC)c(I)c1` [Amiodarone] has an IC15 [1, 4] of 40 µM.

For `C=CC[C@@H]1/C=C(\C)C[C@H](C)C[C@H](OC)[C@H]2O[C@@](O)(C(=O)C(=O)N3CCCC[C@H]3C(=O)O[C@H](/C(C)=C/[C@@H]3CC[C@@H](O)[C@H](OC)C3)[C@H](C)[C@@H](O)CC1=O)[C@H](C)C[C@@H]2OC` [Tacrolimus], the IC15 [1, 4] was 30 µM, the IC15 [1, 5] was 40 µM and the IC50 (human GI microtissue [2]) was 55 µM. The Caco-2 TEER IC15 (Caco-2 cells) was 30 µM.

`Cc1cccc([C@H](C)c2cnc[nH]2)c1C` [Dexmedetomidine] was tested, and the IC15 [1, 4] was 40 µM, the IC15 [1, 5] was 40 µM and the IC50 (human GI microtissue [2]) was > 100 µM. The “Caco-2 TEER IC15/Cmax” value (Caco-2 cells) was 21138.

In the case of `CC(=O)[C@]1(O)Cc2c(O)c3c(c(O)c2[C@@H](O[C@H]2C[C@H](N)[C@H](O)[C@H](C)O2)C1)C(=O)c1ccccc1C3=O` [Idarubicin], the IC15 [1, 4] is reported as 4.3 µM, the IC15 [1, 5] is reported as 2.5 µM and the IC50 (human GI microtissue [2]) is reported as 10 µM. It also gave a Caco-2 TEER IC15 (Caco-2 cells) of 8 µM.

`CNCCCC12CCC(c3ccccc31)c1ccccc12` [Maprotiline] showed an IC15 [1, 4] of 6 µM and an IC15 [1, 5] of 9 µM.
